# Measured values as given in patent US7595313B2, “Nitric oxide donating diuretic compounds, compositions and methods of use” (NicOx, S.A., priority 2005, dated 2009).
# What was measured:
# [1] = test system: Male Wistar rats; test: Determination of the diuresis (urine volume over 6 hours after oral dosing); assay type: in vivo, rat
# Method: Procedures were approved by the Institutional Animal Care and Use Committee of NitroMed, Inc. Male Wistar rats (180-200 g) were purchased from Charles River Laboratories (Kingston, N.Y. or Raleigh, N.C.) and allowed to acclimate in the facility for a period of at least 72 h. Rats were randomly housed 2-3 per cage in a light-controlled room with a 12 hour light/dark cycle and allowed ad libitum access to food and water.
# Prior to the experiment, each rat was placed in a metabolic cage and allowed to acclimate for a period of 24-48 hours with food and water ad libitum. During this acclimation period, rats received mash food instead of pellet food to prevent contamination of the urine samples. All rats were fasted for 18 hours prior to experimentation. In addition, water was removed 90 minutes prior to oral dosing with test compound or vehicle.
# The test compounds were prepared immediately prior to dosing in 0.5% Methocel (F4M Premium Hydroxypropyl Methylcellulose, lot # PF12012N12; Dow Chemical Company, USA) and homogenized with a glass/Teflon pestle motorized homogenizer. Gently vortexed test compounds were administered intragastrically (p.o.; 30 mg/kg or 3 mg/kg) at a dose volume of 3 ml per rat using an 18 gauge gavage needle. Urine volume (ml) was monitored and urine was collected for subsequent electrolyte analysis over a 6 hours period. […] Data are expressed as mean ±SEM; n=6 or 7.
# [2] = p.o. 3 mg/kg in 0.5% Methocel, male Wistar rats, 6 hours, mean ± SEM, n=6 or 7
# [3] = p.o. 30 mg/kg in 0.5% Methocel, male Wistar rats, 6 hours, mean ± SEM, n=6 or 7
smiles,measurement,setting,value
"NS(=O)(=O)c1cc2c(cc1Cl)NC(CCCC(=O)NC[C@@H](CO[N+](=O)[O-])O[N+](=O)[O-])=NS2(=O)=O [Example 21b, 4H-1,2,4-Benzothiadiazine-3-butanamide, 7-(aminosulfonyl)-N-[(2S)-2,3-bis(nitrooxy)propyl]-6-chloro-, 1,1-dioxide]",Urine collected in 6 hours (mL) (30 mg/kg),"[1]; rat, in vivo, po",2.7 ± 0.3 mL
same,melting point,,140 °C (dec.)
"CC(CO[N+](=O)[O-])(CO[N+](=O)[O-])C(=O)N1CCC2(CC1)Nc1cc(Cl)c(S(N)(=O)=O)cc1S(=O)(=O)N2 [Example 23, Spiro[2H-1,2,4-benzothiadiazine-3(4H), 4′-piperidine]-7-sulfonamide, 6-chloro-1′-[2-methyl-3-(nitrooxy)-2-[(nitrooxy)methyl]-1-oxopropyl]-, 1,1-dioxide]",Urine collected in 6 hours (mL) (30 mg/kg),"[1]; rat, in vivo, po",1.7 ± 0.6 mL
same,melting point,,142 to 145 °C
"NS(=O)(=O)c1cc2c(cc1Cl)NC(CCCCCO)NS2(=O)=O (stereo not drawn) [Example 24c, 2H-1,2,4-Benzothiadiazine-7-sulfonamide, 6-chloro-3,4-dihydro-3-(5-hydroxypentyl)-, 1,1-dioxide]",Urine collected in 6 hours (mL) (3 mg/kg),[1]; [2],8.6 ± 0.4 mL
same,Urine collected in 6 hours (mL) (30 mg/kg),[1]; [3],7.2 ± 0.7 mL
same,melting point,,190 °C
"NS(=O)(=O)c1cc2c(cc1Cl)NC(CCCCO)NS2(=O)=O (stereo not drawn) [Example 26, 2H-1,2,4-Benzothiadiazine-7-sulfonamide, 6-chloro-3,4-dihydro-3-(4-hydroxybutyl)-, 1,1-dioxide]",Urine collected in 6 hours (mL) (30 mg/kg),[1]; [3],6.0 ± 0.4 mL
same,melting point,,202 to 211 °C
"NS(=O)(=O)c1cc2c(cc1Cl)NCN(CCO)S2(=O)=O [Example 32b, 2H-1,2,4-Benzothiadiazine-7-sulfonamide, 6-chloro-3,4-dihydro-2-(2-hydroxyethyl)-, 1,1-dioxide]",Urine collected in 6 hours (mL) (3 mg/kg),[1]; [2],5.1 ± 0.2 mL
same,melting point,,226 to 228 °C
"NS(=O)(=O)c1cc2c(cc1Cl)NCN(Cc1cccc(CO[N+](=O)[O-])c1)S2(=O)=O [Example 33, 2H-1,2,4-Benzothiadiazine-7-sulfonamide, 6-chloro-3,4-dihydro-2-[[3-[(nitrooxy)methyl]phenyl]methyl]-, 1,1-dioxide]",Urine collected in 6 hours (mL) (3 mg/kg),[1]; [2],3.0 ± 0.4 mL
same,melting point,,136 to 139 °C (dec.)
"NS(=O)(=O)c1cc2c(cc1Cl)NCN(CC(=O)NCCCO[N+](=O)[O-])S2(=O)=O [Example 34, 2H-1,2,4-Benzothiadiazine-2-acetamide, 7-(aminosulfonyl)-6-chloro-3,4-dihydro-N-[3-(nitrooxy)propyl]-, 1,1-dioxide]",Urine collected in 6 hours (mL) (3 mg/kg),[1]; [2],2.8 ± 0.3 mL
same,melting point,,138 to 141 °C
"Cc1c(CN2CNc3cc(Cl)c(S(N)(=O)=O)cc3S2(=O)=O)no[n+]1[O-] [Example 37c, 2H-1,2,4-Benzothiadiazine-7-sulfonamide, 6-chloro-3,4-dihydro-2-[(4-methyl-5-oxido-1,2,5-oxadiazol-3-yl)methyl]-, 1,1-dioxide]",Urine collected in 6 hours (mL) (3 mg/kg),[1]; [2],2.1 ± 0.6 mL
same,melting point,,235 to 237 °C
"CN(CCO[N+](=O)[O-])C(=O)CN1CNc2cc(Cl)c(S(N)(=O)=O)cc2S1(=O)=O [Example 38, 2H-1,2,4-Benzothiadiazine-2-acetamide, 7-(aminosulfonyl)-6-chloro-3,4-dihydro-N-methyl-N-[2-(nitrooxy)ethyl]-, 1,1-dioxide]",Urine collected in 6 hours (mL) (3 mg/kg),[1]; [2],4.5 ± 0.6 mL
same,melting point,,160 to 165 °C
"NS(=O)(=O)c1cc2c(cc1Cl)NCN(CCCCO)S2(=O)=O [Example 41, 2H-1,2,4-Benzothiadiazine-7-sulfonamide, 6-chloro-3,4-dihydro-2-(4-hydroxybutyl)-, 1,1-dioxide]",Urine collected in 6 hours (mL) (3 mg/kg),[1]; [2],5.5 ± 0.6 mL
same,melting point,,96 to 99 °C
"NS(=O)(=O)c1cc2c(cc1Cl)NCN(CCCC(CO[N+](=O)[O-])O[N+](=O)[O-])S2(=O)=O (stereo not drawn) [Example 43b, 2H-1,2,4-Benzothiadiazine-7-sulfonamide, 2-[4,5-bis(nitrooxy)pentyl]-6-chloro-3,4-dihydro-, 1,1-dioxide]",Urine collected in 6 hours (mL) (3 mg/kg),"[1]; rat, in vivo, po",3.0 ± 0.6 mL
same,melting point,,49 to 53 °C
"CN(CCO[N+](=O)[O-])CC1Nc2cc(Cl)c(S(N)(=O)=O)cc2S(=O)(=O)N1 (stereo not drawn) [Example 45, 2H-1,2,4-Benzothiadiazine-7-sulfonamide, 6-chloro-3,4-dihydro-3-[[methyl[2-(nitrooxy)ethyl]amino]methyl]-, 1,1-dioxide]",Urine collected in 6 hours (mL) (3 mg/kg),[1]; [2],4.8 ± 1.3 mL
same,melting point,,175 to 180 °C
"NS(=O)(=O)c1cc2c(cc1Cl)NC(CCCCCCO[N+](=O)[O-])NS2(=O)=O (stereo not drawn) [Example 47c, 2H-1,2,4-Benzothiadiazine-7-sulfonamide, 6-chloro-3,4-dihydro-3-[6-(nitrooxy)hexyl]-, 1,1-dioxide]",Urine collected in 6 hours (mL) (3 mg/kg),[1]; [2],8.3 ± 0.6 mL
same,melting point,,161 °C
"NS(=O)(=O)c1cc2c(cc1Cl)NCN(CC[C@@H](CO[N+](=O)[O-])O[N+](=O)[O-])S2(=O)=O [Example 48b, 2H-1,2,4-Benzothiadiazine-7-sulfonamide, 2-[(3S)-3,4-bis(nitrooxy)butyl]-6-chloro-3,4-dihydro-, 1,1-dioxide]",Urine collected in 6 hours (mL) (3 mg/kg),"[1]; rat, in vivo, po",4.8 ± 0.8 mL
same,melting point,,162 to 163 °C
"NS(=O)(=O)c1cc2c(cc1Cl)NC(CC(=O)N(CCO[N+](=O)[O-])CCO[N+](=O)[O-])NS2(=O)=O (stereo not drawn) [Example 49e, 2H-1,2,4-Benzothiadiazine-3-acetamide, 7-(aminosulfonyl)-6-chloro-3,4-dihydro-N,N-bis[2-(nitrooxy)ethyl]-, 1,1-dioxide]",Urine collected in 6 hours (mL) (3 mg/kg),"[1]; rat, in vivo, po",2.5 ± 0.5 mL
same,melting point,,94 to 97 °C
"NS(=O)(=O)c1cc2c(cc1Cl)NC(c1cc(CO[N+](=O)[O-])cc(CO[N+](=O)[O-])c1)NS2(=O)=O (stereo not drawn) [Example 50c, 2H-1,2,4-Benzothiadiazine-7-sulfonamide, 3-[3,5-bis[(nitrooxy)methyl]phenyl]-6-chloro-3,4-dihydro-, 1,1-dioxide]",Urine collected in 6 hours (mL) (3 mg/kg),"[1]; rat, in vivo, po",3.3 ± 0.6 mL
same,melting point,,121 to 124 °C
"NS(=O)(=O)c1cc2c(cc1Cl)N([N+](=O)[O-])CN(CCO[N+](=O)[O-])S2(=O)=O [Example 52, 2H-1,2,4-Benzothiadiazine-7-sulfonamide, 6-chloro-3,4-dihydro-4-nitro-2-[2-(nitrooxy)ethyl]-, 1,1-dioxide]",Urine collected in 6 hours (mL) (3 mg/kg),"[1]; rat, in vivo, po",5.7 ± 0.8 mL
same,melting point,,144 °C (dec.)
"NS(=O)(=O)c1cc2c(cc1Cl)NCN(CCCC(=O)O)S2(=O)=O [Example 53c, 2H-1,2,4-Benzothiadiazine-2-butanoic acid, 7-(aminosulfonyl)-6-chloro-3,4-dihydro-, 1,1-dioxide]",Urine collected in 6 hours (mL) (3 mg/kg),[1]; [2],3.7 ± 0.4 mL
same,melting point,,72 to 78 °C
"NS(=O)(=O)c1cc2c(cc1C(F)(F)F)NC(c1cc(CO[N+](=O)[O-])cc(CO[N+](=O)[O-])c1)NS2(=O)=O (stereo not drawn) [Example 55, 2H-1,2,4-Benzothiadiazine-7-sulfonamide, 3-[3,5-bis[(nitrooxy)methyl]phenyl]-3,4-dihydro-6-(trifluoromethyl)-, 1,1-dioxide]",Urine collected in 6 hours (mL) (3 mg/kg),"[1]; rat, in vivo, po",3.3 ± 0.4 mL
same,melting point,,> 113 °C (dec.)
"NS(=O)(=O)c1cc2c(cc1Cl)NC(CNC(=O)CN(CCO[N+](=O)[O-])CCO[N+](=O)[O-])NS2(=O)=O (stereo not drawn) [Example 57c, Acetamide, N-[[7-(aminosulfonyl)-6-chloro-3,4-dihydro-1,1-dioxido-2H-1,2,4-benzothiadiazin-3-yl]methyl]-2-[bis[2-(nitrooxy)ethyl]amino]-]",Urine collected in 6 hours (mL) (3 mg/kg),"[1]; rat, in vivo, po",3.6 ± 0.6 mL
same,melting point,,118 °C (dec.)
"NS(=O)(=O)c1cc2c(cc1Cl)NCN(CCCCCCO[N+](=O)[O-])S2(=O)=O [Example 58b, 2H-1,2,4-Benzothiadiazine-7-sulfonamide, 6-chloro-3,4-dihydro-2-[6-(nitrooxy)hexyl]-, 1,1-dioxide]",Urine collected in 6 hours (mL) (3 mg/kg),[1]; [2],6.3 ± 0.2 mL
same,melting point,,158 to 160 °C
"NS(=O)(=O)c1cc2c(cc1Cl)NCN(CCCO)S2(=O)=O [Example 59, 2H-1,2,4-Benzothiadiazine-7-sulfonamide, 6-chloro-3,4-dihydro-2-(3-hydroxypropyl)-, 1,1-dioxide]",Urine collected in 6 hours (mL) (3 mg/kg),[1]; [2],6.7 ± 0.6 mL
same,melting point,,160 °C
